Reference: US20240398823A1, “DUAL INHIBITOR OF HISTONE DEACETYLASE 6 AND HEAT SHOCK PROTEIN 90” (TAIPEI MEDICAL UNIVERSITY, priority 2021, published 2024)

Key:
[1] = test system: acetylation of α-tubulin and histone H3; test: Western blot of α-tubulin and histone H3 acetylation in HCT116; assay type: cell-based, human; details: HCT116, 0.25-1 μM, 6 hours
Protocol: The ability of α-tubulin and histone H3 acetylation was measured.
The effects of the HSP90/HDAC6 dual inhibitors as described in Synthesis Examples (such as Compounds 63, 64, and 66 to 76) on several factors were evaluated. Cells were lysed in RIPA buffer (Thermo Fisher Scientific, Wal-tham, MA, USA) and protease inhibitor (Roche, Basel, CH). Sample were further separated in 8% or 15% SDS-PAGE and transferred to nitrocellulose membrane and blocked with 5% skim milk (w/v in PBS). Nitrocellulose membranes were then incubated with primary antibodies against the following antigens: HSP90, Src, AKT, Rb, phosphorylated Rb (p-Rb), FAK, HSP70, α-tubulin acetylation, acetyl histone H3, phosphorylated STAT1 (p-STAT1), STAT1 (Cell signaling, Danvers, MA, USA), α-tubulin, Histone H3 (Genetex, Irvine, USA), IDO (Santa Cruz Biotechnology Dallas, TX, USA) and PD-L1 (Novus, Littleton, CO, USA) at 4° C. for overnight. The target proteins were visualized by using HRP-conjugated secondary antibodies (Jackson ImmunoResearch Laboratories, West Grove, PA, USA) and enhanced chemiluminescence kit (Thermo Fisher Scientific, Waltham, MA, U.S.A.).
The ability of Compound 75 on the acetylation of α-tubulin and histone H3 was evaluated. HCT116 cells were administered with Compound 75 for 6 hours and analyzed by western blot. […] Next, whether Compound 75 inhibited HSP90 was evaluated. […]

[2] = test system: human colon normal epithelial cells (CCD841CON); test: MTT cytotoxicity to normal cells, CCD841CON; assay type: cell-based; details: CCD-841CoN, 48 hours, read-out: IC50, proliferation of CCD841CON
Protocol: FIGS. 3A and 3B show the effects of Compound 75 on cytotoxicity to normal cell lines. Cells were treated with DMSO or different concentrations of Compound 75 for 48 hours and cell viability was assessed by MTT assay. […] Data are expressed as mean t S.D. N values greater than 3. * P<0.05; ** P<0.01; *** P<0.001, compared with the control group.
The effects on cell viability of the HSP90/HDAC6 dual inhibitors as described in Synthesis Examples (such as Compounds 63, 64, and 66 to 76) were evaluated. Cells were seeded in 96-well plates (5000 cells/well). The next day, the serially diluted drugs were added into the wells and incubated at 37° C. for 48 h. Cell viability was measured by the MTT assay and is expressed as percentages of surviving drug-treated cells relative to untreated control cells. The IC50 was calculated by non-linear regression analysis.
The cytotoxicity to normal cells of Compound 75 was evaluated.

[3] = test system: central memory T cells (TCM) in the spleen; test: Central memory T cells in spleen by flow cytometry; assay type: in vivo, mouse
Protocol: Stage 1: CT26 was injected subcutaneously into the left dorsum of immunocompetent mice (BALB/c), and Compound 75 treatment was started after 3 days, administered intravenously at a dose of 50 mg/kg every two days (7 doses in total). After tumor removal, tumor cells were isolated for in vitro culture (untreated tumor control-tumor; Compound 75-treated tumor: Compound 75-tumor). Stage 2: On day 17, the isolated tumor cells were injected subcutaneously into the right side of the mouse back and the mice were sacrificed on day 37 (as shown in FIG. 14A). […] Data are mean t S.E.M. N values greater than 4.

SMILES: COc1ccc(N(Cc2ccc(C(=O)NO)cc2)C(=O)c2cc(C(C)C)c(O)cc2O)cc1 [Compound 75, 2,4-Dihydroxy-N-(4-hydroxycarbamoyl-benzyl)-5-isopropyl-N-(4-methoxy-phenyl)-benzamide]
- acetylation of α-tubulin and histone H3 [1]: enhances the acetylation of α-tubulin and histone H3
- IC50 [2]: > 20 µM
- percentage of central memory T cells [3]: significantly increased
